Measurements published in ChEMBL document CHEMBL1914396, “Solid-state NMR analysis of interaction sites of curcumin and 42-residue amyloid β-protein fibrils” (Bioorg Med Chem, 2011).
Calls of active or inactive are those of the source. No cut-off for these calls is given here.

What was measured:
[1] = Binding affinity to [13C]-labelled at 17-21 positions of amyloid beta (1 to 42) fibrils by NMR spectroscopy
[2] = Binding affinity to [13C]-labelled amyloid beta (1 to 42) fibrils assessed as change in morphology of fibrillation at 50 uM after 1 hr using uranyl acetate dye by Transmission electron microscopy
[3] = Binding affinity to V12 of [13C]-labelled N-terminus amyloid beta (1 to 42) fibrils after 48 hrs by 2D-DARR spectroscopy
[4] = Binding affinity to A2 of [13C]-labelled N-terminus amyloid beta (1 to 42) fibrils after 48 hrs by 2D-DARR spectroscopy
[5] = Binding affinity to F4 of [13C]-labelled N-terminus amyloid beta (1 to 42) fibrils after 48 hrs by 2D-DARR spectroscopy
[6] = Binding affinity to G9 of [13C]-labelled N-terminus amyloid beta (1 to 42) fibrils after 48 hrs by 2D-DARR spectroscopy
[7] = Binding affinity to [13C]-labelled at 17-21 positions of amyloid beta (1 to 42) fibrils after 48 hrs by 2D-DARR spectroscopy

With COc1cc(/C=C/C(=O)CC(=O)/C=C/c2ccc(O)c(OC)c2)ccc1O the Activity [1] was “Active”, the Activity [2] was “inactive” and the Activity [3] was “Active”. The Activity [4] was “inactive”, the Activity [5] was “inactive” and the Activity [6] was “inactive”. The Activity [7] was “Active”.
